The source of these data is patent US9884818B2, “Sulphamoylpyrrolamide derivatives and the use thereof as medicaments for the treatment of hepatitis B” (Janssen Sciences Ireland UC, priority 2013, dated 2018).

pEC50: −log10 of the molar value.

What is called pEC50 is the EC50 on a negative log10 scale, so that one unit is a factor of ten. Usually CC50 stands for the concentration that lowers cell viability or growth by half. A lower CC50 goes with harm at low concentration.

For series [1], the system named is HBV. As to the kind of experiment: Anti-HBV activity, HepG2.2.15 stable transfected cell line, HBV DNA from secreted virions by realtime PCR. The class given is cell-based. The following applies: Hepatitis B virus, HepG2.2.15, 144 h, HepG2.2.15 cells, 6 days of treatment, HBV DNA from secreted virions; read-out: HepG2 2.15 EC50.
Series [2] can be described thus: Cytotoxicity in HepG2 cells, Resazurin viability assay. The following applies: human, HepG2 cells, HepG2 4 days CC50 (μM), incubated for 4 days, Resazurin assay. (The colour change of resazurin is a common sign of viable cells or microbes.)
Series [3] has as its system HBV. Briefly: Anti-HBV activity, HepG2.117 inducibly HBV producing cell line (Tet-off), intracellular HBV DNA by realtime PCR. The conditions noted are these: Hepatitis B virus, HepG2.117, 72 h, HepG2.117 cells, 3 days of treatment, intracellular HBV DNA; read-out: HepG2 117 EC50. The series is classed as cell-based.

Regarding `Cc1c(S(=O)(=O)N[C@H](C)C(F)(F)F)cn(C)c1C(=O)Nc1ccc(F)c(F)c1` [Compound 144, N-(3,4-Difluorophenyl)-1,3-dimethyl-4-{[(1R)-2,2,2-trifluoro-1-methylethyl]sulfamoyl}-1H-pyrrole-2-carboxamide], the results for the pEC50 in the series with HBV [1] and with HBV [3] were 7.30 and 7.15, respectively. In series [2], the CC50 at 4 days was more than 25 µM.
In the same order, the values of `Cc1cc(NC(=O)c2cc(S(=O)(=O)NC3(CC#N)CC3)cn2C)ccc1F` [Compound 18, 4-[[1-(cyanomethyl)cyclopropyl]sulfamoyl]-N-(4-fluoro-3-methyl-phenyl)-1-methyl-pyrrole-2-carboxamide] are more than 7.70, 7.52 and more than 25 µM.
`CCC(CC)(NS(=O)(=O)c1cc(C(=O)Nc2ccc(F)c(Cl)c2F)n(C)c1)C(F)(F)F` [Compound 259, N-(3-chloro-2,4-difluoro-phenyl)-4-[[1-ethyl-1-(trifluoromethyl)-propyl]sulfamoyl]-1-methyl-1H-pyrrole-2-carboxamide]: the pEC50 with HBV [1] and with HBV [3] was 7.30 in each case. Also, the CC50 at 4 days in series [2] was more than 25 µM.
With `C[C@@H](NS(=O)(=O)c1cn(C)c(C(=O)Nc2ccc(F)c(C(F)F)c2F)c1Cl)C(F)(F)F` [Compound 278, 3-chloro-N-[3-(difluoromethyl)-2,4-difluoro-phenyl]-1-methyl-4-[[(1R)-2,2,2-trifluoro-1-methyl-ethyl]sulfamoyl]pyrrole-2-carboxamide], the pEC50 is 8.22 with HBV [1] and 8.00 in the series on HBV [3]. For the same compound, the CC50 at 4 days in series [2] is more than 25 µM.
Taken in the same sequence, the figures for `Cn1cc(S(=O)(=O)NC23CC(C2)C3)cc1C(=O)Nc1cc(F)c(F)c(Cl)c1` [Compound 167, 4-(Bicyclo[1.1.1]pent-1-ylsulfamoyl)-N-(3-chloro-4,5-difluorophenyl)-1-methyl-1H-pyrrole-2-carboxamide] were 6.92, 6.51 and more than 25 µM.
Turning to `C[C@@H](NS(=O)(=O)c1cn(C)c(C(=O)Nc2ccc(F)c(C(F)F)c2)c1Cl)C(F)(F)F` [Compound 279, 3-chloro-N-[3-(difluoromethyl)-4-fluoro-phenyl]-1-methyl-4-[[(1R)-2,2,2-trifluoro-1-methyl-ethyl]sulfamoyl]pyrrole-2-carboxamide], the pEC50 in the series with HBV [1] was more than 8.40; with HBV [3] it was 8.30. Moreover, the CC50 at 4 days in series [2] was more than 25 µM.
Taken in the same sequence, the figures for `Cc1c(F)ccc(NC(=O)c2cc(S(=O)(=O)NC(C)(C)C(F)(F)F)cn2C)c1F` [Compound 118, N-(2,4-Difluoro-3-methylphenyl)-1-methyl-4-[(2,2,2-trifluoro-1,1-dimethylethyl)sulfamoyl]-1H-pyrrole-2-carboxamide] were 7.30, 7.70 and more than 25 µM.
In the same order, the values of `Cn1cc(S(=O)(=O)NC2(C)COC2)c(F)c1C(=O)Nc1ccc(F)c(Cl)c1F` [Compound 215, N-(3-Chloro-2,4-difluorophenyl)-3-fluoro-1-methyl-4-[(3-methyloxetan-3-yl)sulfamoyl]-1H-pyrrole-2-carboxamide] are 7.70, 8.00 and more than 25 µM.
As to `CCC(C)(NS(=O)(=O)c1cc(C(=O)Nc2ccc(F)c(C#N)c2)n(C)c1)C(F)(F)F` (stereo not drawn) [Compound 246, N-(3-cyano-4-fluoro-phenyl)-1-methyl-4-{[1-methyl-1-(trifluoro-methyl)propyl]sulfamoyl}-1H-pyrrole-2-carboxamide], the pEC50 in the series with HBV [1] was 7.30; with HBV [3], 7.22. In series [2], this compound displayed a CC50 at 4 days of more than 25 µM.
In the same order, the values of `Cc1c(S(=O)(=O)N[C@H](C)C(F)(F)F)cc(C(=O)Nc2ccc(F)c(Br)c2)n1C` [Compound 141, N-(3-Bromo-4-fluorophenyl)-1,5-dimethyl-4-{[(1R)-2,2,2-trifluoro-1-methylethyl]sulfamoyl}-1H-pyrrole-2-carboxamide] are 7.40, 6.82 and more than 25 µM.
As for `Cc1cc(NC(=O)c2cc(S(=O)(=O)N[C@@H](C)C(F)(F)F)cn2C)cc(F)c1F` [Compound 104, N-(3,4-Difluoro-5-methylphenyl)-1-methyl-4-{[(1S)-2,2,2-trifluoro-1-methylethyl]sulfamoyl}-1H-pyrrole-2-carboxamide], the pEC50 in the series with HBV [1] and in the series with HBV [3] was 7.70 throughout. Besides, the CC50 at 4 days in series [2] was more than 25 µM.
`Cc1c(S(=O)(=O)N[C@@H](C)C(F)(F)F)cn(C)c1C(=O)Nc1ccc(F)c(Cl)c1` [Compound 147, N-(3-Chloro-4-fluorophenyl)-1,3-dimethyl-4-{[(1S)-2,2,2-trifluoro-1-methylethyl]sulfamoyl}-1H-pyrrole-2-carboxamide]: the figures for the pEC50 in the series with HBV [1] and with HBV [3] were 7.10 and 7.40, respectively. In addition, the CC50 at 4 days in series [2] was more than 25 µM.
Taken in the same sequence, the figures for `CC(C)NS(=O)(=O)c1cn(C)c(C(=O)Nc2ccc(F)c(Cl)c2)c1F` [Compound 235, N-(3-Chloro-4-fluorophenyl)-3-fluoro-1-methyl-4-[(1-methylethyl)sulfamoyl]-1H-pyrrole-2-carboxamide] were 8.00, 8.00 and more than 25 µM.
In the same order, the values of `CC(C)NS(=O)(=O)c1cn(C)c(C(=O)Nc2ccc(F)c(C#N)c2F)c1F` [Compound 231, N-(3-Cyano-2,4-difluorophenyl)-3-fluoro-1-methyl-4-[(1-methyl-ethyl)sulfamoyl]-1H-pyrrole-2-carboxamide] are 7.40, 7.52 and more than 25 µM.
On to `Cc1cc(NC(=O)c2cc(S(=O)(=O)NC3(C)COC3)cn2C)ccc1Cl` [Compound 77, N-(4-Chloro-3-methylphenyl)-1-methyl-4-[(3-methyloxetan-3-yl)sulfamoyl]-1H-pyrrole-2-carboxamide], for which the pEC50 with HBV [1] is 7.15; with HBV [3] it was 6.74. In series [2], this compound gave a half-maximal cytotoxic concentration (CC50) at 4 days of more than 25 µM.
In the same order, the values of `Cn1cc(S(=O)(=O)NCC(F)(F)F)cc1C(=O)Nc1ccc(F)c(C#N)c1` [Compound 134, N-(3-Cyano-4-fluorophenyl)-1-methyl-4-[(2,2,2-trifluoroethyl)sulfamoyl]-1H-pyrrole-2-carboxamide] are 6.74, 6.89 and more than 25 µM.
`Cn1cc(S(=O)(=O)NC2(C)COC2)cc1C(=O)Nc1ccc(F)c(Cl)c1` [Compound 78, N-(3-Chloro-4-fluorophenyl)-1-methyl-4-[(3-methyloxetan-3-yl)sulfamoyl]-1H-pyrrole-2-carboxamide]: the values for the negative-log EC50 (pEC50) in the series on HBV [1] and in the series with HBV [3] were 7.70 and 7.52, respectively. In addition, in series [2], the CC50 at 4 days is more than 25 µM.
In the same order, the values of `C[C@@H](NS(=O)(=O)c1cn(C)c(C(=O)Nc2ccc(F)c(C#N)c2F)c1F)C(F)(F)F` [Compound 181, N-(3-Cyano-2,4-difluorophenyl)-3-fluoro-1-methyl-4-{[(1R)-2,2,2-trifluoro-1-methylethyl]sulfamoyl}-1H-pyrrole-2-carboxamide] are 8.10, 8.22 and more than 25 µM.
Taken in the same sequence, the figures for `CCC(C)(NS(=O)(=O)c1cc(C(=O)Nc2ccc(F)c(Cl)c2F)n(C)c1)C(F)(F)F` (stereo not drawn) [Compound 257, N-(3-chloro-2,4-difluoro-phenyl)-1-methyl-4-{[1-methyl-1-(trifluoro-methyl)propyl]sulfamoyl}-1H-pyrrole-2-carboxamide] were 7.10, 7.05 and more than 25 µM.
Taken in the same sequence, the figures for `CC[C@@H](C)NS(=O)(=O)c1cc(C(=O)Nc2ccc(F)c(C#N)c2)n(C)c1` [Compound 294, N-(3-cyano-4-fluoro-phenyl)-1-methyl-4-[[(1R)-1-methylpropyl]-sulfamoyl]pyrrole-2-carboxamide] were 7.40, 7.00 and more than 25 µM.
In the case of `Cc1c(F)ccc(NC(=O)c2c(Cl)c(S(=O)(=O)N[C@H](C)C(F)(F)F)cn2C)c1C#N` [Compound 272, 3-chloro-N-(2-cyano-4-fluoro-3-methyl-phenyl)-1-methyl-4-[[(1R)-2,2,2-trifluoro-1-methyl-ethyl]sulfamoyl]pyrrole-2-carboxamide], the results for the pEC50 in the series with HBV [1] and with HBV [3] were 6.52 and 6.12, respectively. The same compound registered a CC50 at 4 days in series [2] of more than 25 µM.
Taken in the same sequence, the figures for `Cc1cc(NC(=O)c2c(F)c(S(=O)(=O)NC3(C)COC3)cn2C)ccc1F` [Compound 94, 3-Fluoro-N-(4-fluoro-3-methylphenyl)-1-methyl-4-[(3-methyloxetan-3-yl)sulfamoyl]-1H-pyrrole-2-carboxamide] were 8.05, 8.00 and more than 25 µM.
`Cn1cc(S(=O)(=O)NC2(C)COC2)cc1C(=O)Nc1ccc(F)c(C(F)F)c1` [Compound 39, N-[3-(difluoromethyl)-4-fluoro-phenyl]-1-methyl-4-[(3-methyloxetan-3-yl)sulfamoyl]pyrrole-2-carboxamide]: the pEC50 in the series on HBV [1] was 7.30; in the series with HBV [3], 7.40. In series [2], this compound gave a CC50 at 4 days of more than 25 µM.
Taken in the same sequence, the figures for `Cn1cc(S(=O)(=O)NC(CF)CF)cc1C(=O)Nc1ccc(F)c(Cl)c1F` [Compound 264, N-(3-chloro-2,4-difluoro-phenyl)-4-{[2-fluoro-1-(fluoromethyl)-ethyl]sulfamoyl}-1-methyl-1H-pyrrole-2-carboxamide] were 7.05, 6.89 and more than 25 µM.
Taken in the same sequence, the figures for `Cc1c(F)ccc(NC(=O)c2cc(S(=O)(=O)NC3(C(F)(F)F)CC3)cn2C)c1F` [Compound 117, N-(2,4-Difluoro-3-methylphenyl)-1-methyl-4-{[1-(trifluoromethyl)-cyclopropyl]sulfamoyl}-1H-pyrrole-2-carboxamide] were 8.15, 8.00 and more than 25 µM.
